The text below walks through data of US9796753B2, “N-substituted indenoisoquinolines and syntheses thereof” (Purdue Research Foundation, priority 2005, dated 2017).

Holding throughout (assay type): cell-based
For series [1], the system named is CNS SF-539. As to the kind of experiment: COMPARE screening (NCI human cancer cell line screen), cytotoxicity GI50. In outline:
(§1)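 Cells of the NCI60 panel were exposed to compound at 100, 10, 1, 0.1 and 0.01 μM for 48 h, then stained with sulforhodamine B. Optical density relative to control was plotted as percentage growth versus log10 concentration.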

The test system of series [2] is colon HCT-116. The description is as above. In outline: as §1
The test system of series [3] is lung HOP-62. The description is as above. The method in brief: as §1
In series [4] the test system is melanoma UACC-62. The series is described as above. The method in brief: as §1
Series [5] relates to ovarian OVCAR-3. The series is described as above. The method in brief: as §1
The test system of series [6] is prostate DU-145. The description is as above. In outline: as §1
Series [7] concerns renal SN12C. Described as above. In outline: as §1
The subject of series [8] is breast MDA-MB-435. The description is as above.
Protocol: COMPARE screening. The compounds described herein were examined for antiproliferative activity against the human cancer cell lines in the National Cancer Institute screen (COMPARE screening), in which the activity of each compound was evaluated with approximately 55 different cancer cell lines of diverse tumor origins. […] Therefore, the MGM value represents an overall assessment of toxicity of the compound across numerous cell lines.
Series [9] deals with all human cancer cell lines successfully tested. As to the kind of experiment: NCI screen mean graph midpoint (MGM) for growth inhibition. The method in brief:
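NCI60 panel cells exposed to compound at 100, 10, 1, 0.1 and 0.01 μM for 48 h, then sulforhodamine B staining. Percentage growth versus control plotted against log concentration; MGM is the midpoint across all lines tested.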

Setting [10] is: CNS SF-539, concentration corresponding to 50% growth inhibition, read-out: cytotoxicity (GI50 in μM) CNS SF-539.
The mark [11] stands for this setting: colon HCT-116, concentration corresponding to 50% growth inhibition, read-out: cytotoxicity (GI50 in μM) colon HCT-116.
Setting [12] is: lung HOP-62, concentration corresponding to 50% growth inhibition, read-out: cytotoxicity (GI50 in μM) lung HOP-62.
Setting [13] is: melanoma UACC-62, concentration corresponding to 50% growth inhibition, read-out: cytotoxicity (GI50 in μM) melanoma UACC-62.
The mark [14] stands for this setting: ovarian OVCAR-3, concentration corresponding to 50% growth inhibition, read-out: cytotoxicity (GI50 in μM) ovarian OVCAR-3.
Where [15] appears, read: prostate DU-145, concentration corresponding to 50% growth inhibition, read-out: cytotoxicity (GI50 in μM) prostate DU-145.
Setting [16] is: renal SN12C, concentration corresponding to 50% growth inhibition, read-out: cytotoxicity (GI50 in μM) renal SN12C.
Where [17] appears, read: breast MDA-MB-435, concentration corresponding to 50% growth inhibition, read-out: cytotoxicity (GI50 in μM) breast MDA-MB-435.
[18] abbreviates: all human cancer cell lines successfully tested.
Where [19] appears, read: Table 1, average GI50 of all cell lines tested (approximately 55), test range 10^−8 to 10^−4 molar.

Like-named read-outs stand apart in the source and are kept apart here.

Regarding `O=C(O)C(F)(F)F.O=C(O)C(F)(F)F.O=C1c2ccccc2-c2c1c1ccc([N+](=O)[O-])cc1c(=O)n2CCCNCCCNCCCn1c2c(c3ccc([N+](=O)[O-])cc3c1=O)C(=O)c1ccccc1-2` [Compound 14n, Bis-1,3-{(5,6-dihydro-5,1-diketo-3-nitro-11H-indeno[1,2-c]isoquinoline)-6-propylamino}propane Bis{trifluoroacetate)], the GI50 in series [1] (setting [10]) was 1.17 µM; in series [2] (setting [11]) it was 1.45 µM; in series [3] (setting [12]) it was 3.02 µM; in series [4] (setting [13]), 1.78 µM; in series [5] (setting [14]), 2.29 µM; in series [6] (setting [15]), 0.912 µM. In addition, the GI50 in series [7] (setting [16]) amounted to 1.17 µM; in [8] (setting [17]), 3.89 µM. For the same compound, the “MGM (mean graph midpoint for growth inhibition)” value in series [9] (setting [18]) is 1.50 ± 0.24 µM.

On to `COc1ccc2c(c1)C(=O)c1c-2n(CCCn2ccnc2)c(=O)c2cc([N+](=O)[O-])ccc12` [Compound 5br], for which the GI50 in series [1] was less than 0.01 µM; in [2], less than 0.01 µM; in [3] it was less than 0.01 µM; in series [4] it was less than 0.01 µM; in series [5] it was 0.02 µM; in series [6], less than 0.01 µM. Further, the GI50 in series [7] and in series [8] was less than 0.01 µM in each case. Further, the “MGM (mean graph midpoint for growth inhibition)” value in [9] (setting [19]) is 0.019 ± 0.004 µM.

In the case of `COc1cc2c3c(n(CCCNCCCNCCCn4c5c(c6cc(OC)c(OC)cc6c4=O)C(=O)c4ccccc4-5)c(=O)c2cc1OC)-c1ccccc1C3=O.O=C(O)C(F)(F)F.O=C(O)C(F)(F)F` [Compound 14l, Bis-1,3-{(5,6-dihydro-5,11-diketo-2,3-dimethoxy-11H-indeno[1,2-c]isoquinoline)-6-propylamino}propane Bis{trifluoroacetate)], the GI50 in series [1] (setting [10]) turned out to be 4.17 µM; in series [2] (setting [11]), 0.331 µM; in series [3] (setting [12]), 1.51 µM; in series [4] (setting [13]) it was 4.27 µM; in series [5] (setting [14]), 9.55 µM; in series [6] (setting [15]), 19.5 µM. The figures for the GI50 in [7] (setting [16]) and in [8] (setting [17]) were 0.24 µM and 3.98 µM, respectively. For the same compound, the MGM (mean GI50 across cell lines) in series [9] (setting [18]) stood at 6030 nM.

Take `COc1ccc2c(c1)C(=O)c1c-2n(CCCn2ccnc2)c(=O)c2ccccc12` [Compound 5bs]: the GI50 in series [1] worked out at 0.178 µM; in series [2], 0.11 µM; in series [3] it was 0.056 µM; in series [4], 0.071 µM; in series [5], 1.66 µM; in series [6], 0.204 µM. The values for the GI50 in [7] and in series [8] were 0.676 µM and 0.646 µM, respectively. In addition, in [9] (setting [19]), the “MGM (mean graph midpoint for growth inhibition)” value is 0.416 ± 0.134 µM.

Consider `COc1ccc2c(c1)C(=O)c1c-2n(CCCN=[N+]=[N-])c(=O)c2ccccc12` [Compound 5bf], for which the GI50 is 44.7 µM in [1]; 26.9 µM in series [2]; 33.9 µM in series [3]; 75.9 µM in [4]; 52.5 µM in series [5]; 61.7 µM in series [6]. The figures for the GI50 in series [7] and in series [8] were greater than 100 µM and 64.6 µM, respectively. Moreover, in series [9] (setting [19]), the MGM (mean GI50 across cell lines) was determined as 38900 nM.

In the case of `NCCCn1c2c(c3ccccc3c1=O)C(=O)c1ccccc1-2` [Compound S-3, 5,6-dihyro-6-(3-amino-1-propyl)-5,11-dioxo-11H-indeno[1,2,c]isoquinoline, reference compound], the GI50 in series [1] worked out at 0.25 µM; in series [2], 0.18 µM; in series [3], 0.2 µM; in series [4], 0.26 µM; in [5], 1.38 µM; in series [6] it was 0.22 µM. Moreover, the results for the GI50 in series [7] and in series [8] were 0.16 µM and 0.78 µM, respectively. The “MGM (mean graph midpoint for growth inhibition)” value in series [9] (setting [18]) was 0.32 ± 0.23 µM.

Regarding `Cl.NCCCn1c2c(c3ccccc3c1=O)C(=O)c1ccccc1-2` [Compound 5am], the GI50 in series [1] turned out to be 0.25 µM; in [2], 0.18 µM; in series [3] it was 0.2 µM; in series [4], 0.26 µM; in [5], 1.38 µM; in series [6] it was 0.22 µM. The GI50 in [7] is 0.16 µM; in series [8], 0.78 µM. In addition, the “MGM (mean graph midpoint for growth inhibition)” value in series [9] (setting [19]) is 0.32 ± 0.23 µM.

As to `COc1cc2c3c(n(CCCn4cccn4)c(=O)c2cc1OC)-c1cc2c(cc1C3=O)OCO2` [Compound 5m], the GI50 in [1] was 0.398 µM; in series [2], 1.99 µM; in series [3], 0.447 µM; in series [4], 0.269 µM; in series [5], 56.2 µM; in [6] it was 0.363 µM. Besides, the results for the GI50 in series [7] and in series [8] were 0.316 µM and 7.08 µM, respectively. Further, the “MGM (mean graph midpoint for growth inhibition)” value in [9] (setting [19]) was 2.16 ± 0.24 µM.

In the case of `O=C1c2ccccc2-c2c1c1ccc([N+](=O)[O-])cc1c(=O)n2CCCn1ccnc1` [Compound 5f], the GI50 came out at 0.016 µM in [1]; 0.274 µM in series [2]; 0.19 µM in series [3]; 0.012 µM in series [4]; 0.864 µM in series [5]; 0.017 µM in [6]. The GI50 in [7] was 0.015 µM; in series [8], 2.17 µM. For the same compound, the “MGM (mean graph midpoint for growth inhibition)” value in series [9] (setting [19]) is 0.370 ± 0.28 µM.

For `O=C(O)C(F)(F)F.O=C(O)C(F)(F)F.O=C1c2ccccc2-c2c1c1ccccc1c(=O)n2CCCN1CCN(CCCn2c3c(c4ccccc4c2=O)C(=O)c2ccccc2-3)CC1` [Compound 14f, Bis-1,4-{(5,6-dihydro-5,11-diketo-11H-indeno[1,2-c]isoquinoline)-6-propyl}piperazine Bis(trifluoroacetate)], the GI50 in [1] was greater than 100 µM; in series [2], 35.5 µM; in [3], 12.9 µM; in series [4], greater than 100 µM; in series [5], greater than 100 µM; in series [6], 24 µM. The GI50 in [7] was 15.5 µM; in series [8], greater than 100 µM. Moreover, the “MGM (mean graph midpoint for growth inhibition)” value in [9] (setting [18]) was 44.8 ± 2.05 µM.

For the compound `Cl.NCCn1c2c(c3ccccc3c1=O)C(=O)c1ccccc1-2` [Compound 5al], the GI50 in series [1] was 0.21 µM; in series [2], 0.27 µM; in series [3], 0.62 µM; in series [4] it was 0.92 µM; in series [5], 0.71 µM; in series [6], 0.76 µM. Besides, the GI50 in series [7] was 0.49 µM; in series [8], 0.92 µM. For the same compound, in series [9] (setting [19]), the “MGM (mean graph midpoint for growth inhibition)” value turned out to be 0.530 ± 0.320 µM.

Consider `COc1ccc2c(c1)C(=O)c1c-2n(CCCCl)c(=O)c2cc([N+](=O)[O-])ccc12` [Compound 5ba], for which the GI50 is 0.027 µM in [1]; 0.794 µM in [2]; 0.295 µM in series [3]; less than 0.01 µM in [4]; 3.39 µM in series [5]; 0.036 µM in series [6]. The 50% growth inhibitory concentration (GI50) in [7] is less than 0.01 µM; in [8], 3.24 µM. Besides, in series [9] (setting [19]), the “MGM (mean graph midpoint for growth inhibition)” value turned out to be 0.178 ± 0.012 µM.

Consider `Cl.NCCCCn1c2c(c3ccccc3c1=O)C(=O)c1ccccc1-2` [Compound 5an], for which the GI50 in series [1] is 0.1 µM; in [2], 0.1 µM; in series [3] it was 0.08 µM; in [4], 0.05 µM; in [5], 0.52 µM; in series [6], 0.01 µM. Also, the GI50 amounted to 0.04 µM in [7] and 0.84 µM in series [8]. The “MGM (mean graph midpoint for growth inhibition)” value in [9] (setting [19]) turned out to be 0.16 ± 0.01 µM.

`COc1cc2c3c(n(CCCN4CCC(N)CC4)c(=O)c2cc1OC)-c1cc2c(cc1C3=O)OCO2.Cl.Cl` [Compound 5u, 6-[3-(4-Aminopiperidinyl)-1-propyl]-5,6-dihydro-2,3-dimethoxy-8,9-methylenedioxy-5,11-dioxo-11H-indeno[1,2-c]isoquinoline Dihydrochloride]: the GI50 in [1] came to 0.1 µM; in [2], 0.12 µM; in [3], 0.427 µM; in series [4], 1.29 µM; in series [5] (Table 1, concentration corresponding to 50% growth inhibition, read-out: cytotoxicity (GI50) ovarian OVCAR-3) it was 0.832 µM; in series [6], 0.182 µM. Moreover, the GI50 in series [7] is 0.257 µM; in [8], 1.74 µM. Moreover, in [9] (setting [19]), the “MGM (mean graph midpoint for growth inhibition)” value was determined as 0.766 ± 0.254 µM.

For the compound `COc1ccc2c(c1)C(=O)c1c-2n(CCCN(C)C)c(=O)c2ccccc12` [Compound 5bq], the GI50 in series [1] worked out at 0.24 µM; in series [2] it was 0.102 µM; in [3] it was 0.078 µM; in series [4], 1 µM; in series [5], 0.427 µM; in [6] it was 0.257 µM. The GI50 in [7] was 0.245 µM; in series [8], 0.617 µM. Besides, the “MGM (mean graph midpoint for growth inhibition)” value in series [9] (setting [19]) worked out at 0.300 ± 0.072 µM.

In general, GI50 refers to the concentration at which growth is held to half of that of the control.
